Assay results: patent US6465442B2, “Topical application of muscarinic and opioid agents for treatment of tinnitus” (priority 1999, dated 2002)
“And” between values parts separate entries of the source, which are not always exact repeats. Equal entries are not always repeated.

Key:
[1] = Otic solution administered by drops to the affected ear of patients complaining of tinnitus; type: in vivo, human
Experimental: A group of ten patients complaining of tinnitus were treated with an otic solution comprising about 500 μg/30 ml of neostigmine. One to two drops of the solution was administered to the affected ear about once every 4-6 hours. The patients reported relief within about 20 minutes after initial administration of the otic composition.

[2] = as above; type: in vivo, human; details: every 4-6 hrs.
[3] = individual tinnitus patients, neostigmine 500 μg/30 cc otic solution, every 4-6 hrs.
[4] = individual tinnitus patients, stadol 1 mg/30 cc otic solution
[5] = individual tinnitus patient, morphine 2 mg/30 cc otic solution

## CN(C)C(=O)Oc1cccc([N+](C)(C)C)c1 [neostigmine]
[1]; group of ten patients, about 500 μg/30 ml otic solution, one to two drops about once every 4-6 hours
  relief of the tinnitus symptoms reported by patients: significant relief
[1]; group of ten patients, about 500 μg/30 ml otic solution, one to two drops to affected ear
  time to relief after initial administration of the otic composition: ≤ 20 min
[1]; [3]
  Results (improvement): 90% and 80% (4×) and 70%
  Side Effects: None

## Oc1ccc2c(c1)[C@@]13CCCC[C@@]1(O)[C@@H](C2)N(CC1CCC1)CC3 [stadol, butorphanol]
[2]; [4]
  Results (improvement): 60% and 80% (2×)
  Side Effects: None

## CN1CC[C@]23c4c5ccc(O)c4O[C@H]2[C@@H](O)C=C[C@H]3[C@H]1C5 [morphine]
[2]; [5]
  Results (improvement): 60%
  Side Effects: None
